This note sets out measurements from ChEMBL document CHEMBL5518207, “Structure Guided Discovery of Novel Pan Metallo-β-Lactamase Inhibitors with Improved Gram-Negative Bacterial Cell Penetration” (J Med Chem, 2024).

The nature of assay [1]: Inhibition of GST tagged NDM-1 (unknown origin) expressed in Escherichia coli BL21 Star (DE3) competent cells using CCF2-FA as substrate incubated for 2 hrs by fluorescence based analysis.
A short description of assay [2]: Inhibition of GST tagged IMP-1 (unknown origin) expressed in Escherichia coli BL21 Star (DE3) competent cells using CCF2-FA as substrate incubated for 2 hrs by fluorescence based analysis.
The subject of a further assay is Escherichia coli. As to the kind of experiment: Potentiation of imipenem induced antibacterial activity against Escherichia coli CLB30005 harbouring NDM-1 incubated for 18 to 22 hrs in presence of imipenem by spectrophotometer based analysis. Format: functional. Particulars: time 18-22 hrs.
A short description of assay [3]: Inhibition of GST tagged VIM-1 (unknown origin) expressed in Escherichia coli BL21 Star (DE3) competent cells using CCF2-FA as substrate incubated for 2 hrs by fluorescence based analysis.
The subject of a further assay is Klebsiella pneumoniae. As to the kind of experiment: Potentiation of imipenem induced antibacterial activity against Klebsiella pneumoniae IHMA599644 harbouring VIM-1 incubated for 18 to 22 hrs imipenem by spectrophotometer based analysis. Particulars: time 18-22 hrs. Format: functional.
In a further assay the test system is Serratia marcescens. The assay can be described thus: Potentiation of imipenem induced antibacterial activity against Serratia marcescens CL5741 harbouring IMP-1 incubated for 18 to 22 hrs imipenem by spectrophotometer based analysis. In kind it is functional. Particulars: time 18-22 hrs.
Assay [4] deals with Pseudomonas aeruginosa. As to the kind of experiment: Potentiation of imipenem induced antibacterial activity against isogenic efflux deleted mutant Pseudomonas aeruginosa MB9799 harbouring IMP incubated for 18 to 22 hrs imipenem and beta lactamase inhibitor by spectrophotometer based analysis. Format: functional. The conditions noted are these: time 18-22 hrs.
The test system of assay [5] is Pseudomonas aeruginosa. As to the kind of experiment: Potentiation of imipenem induced antibacterial activity against isogenic efflux wild type Pseudomonas aeruginosa MB9798 harbouring IMP incubated for 18 to 22 hrs imipenem and beta lactamase inhibitor by spectrophotometer based analysis. Format: functional. Particulars: time 18-22 hrs.
Assay [6] deals with Pseudomonas aeruginosa. As to the kind of experiment: Efflux ratio of MITC95 for potentiation of imipenem induced antibacterial activity against isogenic efflux wild type Pseudomonas aeruginosa MB9798 harbouring IMP to MITC95 for potentiation of imipenem induced antibacterial activity against isogenic efflux deleted mutant Pseudomonas aeruginosa MB9799 harbouring IMP. Format: functional.

As for `Cc1ccc(-c2cccc(S(N)(=O)=O)c2-c2nnn[nH]2)cc1`, the IC50 in assay [1] was found to be 3.7 nM; in assay [2], 64 nM; in [3] it was 57 nM. In addition, the results for the MITC95 with Escherichia coli, in the assay on Klebsiella pneumoniae and in the assay on Serratia marcescens were 1.5 µM, 127 µM and 14 µM, respectively.

With `N=C(N)NCc1ccc(-c2ccc(C(F)(F)F)c(S(N)(=O)=O)c2-c2nn[nH]n2)cc1`, the IC50 in assay [1] is 3.9 nM; in assay [2] it was 3.4 nM; in assay [3], 0.4 nM. In addition, the MITC95 with Escherichia coli worked out at 0.3 µM; in the assay with Pseudomonas aeruginosa [4], 0.39 µM; in the assay on Pseudomonas aeruginosa [5], 35.4 µM; with Klebsiella pneumoniae it was 0.8 µM; with Serratia marcescens, 0.06 µM. Further, the Ratio in the assay on Pseudomonas aeruginosa [6] was 90.

For the compound `Nc1ccc2cccc(-c3ccc(C(F)(F)F)c(S(N)(=O)=O)c3-c3nn[nH]n3)c2n1`, the IC50 in assay [1] is 0.1 nM; in assay [2], 0.8 nM; in [3], 0.4 nM. Also, the MITC95 in the assay with Escherichia coli was 1.6 µM; with Pseudomonas aeruginosa [4], 0.78 µM; in the assay with Pseudomonas aeruginosa [5], 12.5 µM; in the assay with Klebsiella pneumoniae, 3.1 µM; with Serratia marcescens, 3.1 µM. Besides, the Ratio with Pseudomonas aeruginosa [6] is recorded as 16.

Regarding `NS(=O)(=O)c1c(Br)ccc(-c2ccc(C3CCNCC3)cc2)c1-c1nn[nH]n1`, the results for the IC50 in assay [1], in assay [2] and in assay [3] were 11 nM, 10 nM and 3 nM, respectively. Further, the results for the MITC95 with Escherichia coli, with Klebsiella pneumoniae and with Serratia marcescens were 0.4 µM, 1.6 µM and 0.2 µM, respectively.

In the case of `Cc1ccc(-c2ccc(C3CCNCC3)cc2)c(-c2nn[nH]n2)c1S(N)(=O)=O`, the IC50 amounted to 31 nM in assay [1], 72 nM in [2] and 28 nM in [3]. Also, the MITC95 worked out at 3 µM with Escherichia coli, 25 µM in the assay on Klebsiella pneumoniae and 6 µM in the assay on Serratia marcescens.

For the compound `NC1CCC(N2CCC(c3ccc(-c4ccc(C(F)(F)F)c(S(N)(=O)=O)c4-c4nn[nH]n4)cc3)CC2)CC1` (stereo not given), the IC50 is 6.4 nM in [1], 1.8 nM in assay [2] and 11 nM in assay [3]. In addition, the MITC95 in the assay with Escherichia coli was found to be 1.6 µM; in the assay with Pseudomonas aeruginosa [4] it was 0.78 µM; in the assay with Pseudomonas aeruginosa [5] it was 3.1 µM; in the assay with Klebsiella pneumoniae, 50 µM; with Serratia marcescens, 3.1 µM. The Ratio in the assay on Pseudomonas aeruginosa [6] was 4.

With `NC1(c2ccc(-c3ccc(C(F)(F)F)c(S(N)(=O)=O)c3-c3nn[nH]n3)cc2)CCNCC1`, the concentration for half-maximal inhibition (IC50) in assay [1] was 9.3 nM; in assay [2] it was 12.8 nM; in assay [3], 3 nM. The MITC95 was 0.4 µM in the assay on Escherichia coli; 0.39 µM in the assay with Pseudomonas aeruginosa [4]; 25 µM in the assay with Pseudomonas aeruginosa [5]; 0.9 µM in the assay with Klebsiella pneumoniae; 0.3 µM with Serratia marcescens. In the assay on Pseudomonas aeruginosa [6], the Ratio is on record as 64.

Regarding `Nc1ccc2ccc(-c3ccc(C(F)(F)F)c(S(N)(=O)=O)c3-c3nn[nH]n3)cc2n1`, the IC50 in assay [1] was 1.1 nM; in assay [2], 1.5 nM; in assay [3] it was 0.2 nM. Also, the MITC95 in the assay on Escherichia coli is 0.8 µM; with Pseudomonas aeruginosa [4], 0.39 µM; in the assay with Pseudomonas aeruginosa [5], 100 µM; in the assay with Klebsiella pneumoniae, 3.1 µM; in the assay with Serratia marcescens, 3.1 µM. Moreover, in the assay with Pseudomonas aeruginosa [6], the Ratio stood at 256.

Turning to `N=C(N)N[C@H]1CC[C@H](c2ccc(C(F)(F)F)c(S(N)(=O)=O)c2-c2nn[nH]n2)CC1`, the IC50 in assay [1] was determined as 17.5 nM; in assay [2], 25.5 nM; in [3] it was 0.7 nM. The MITC95 in the assay with Escherichia coli was 1.2 µM; in the assay with Pseudomonas aeruginosa [4] it was 0.78 µM; in the assay on Pseudomonas aeruginosa [5] it was 200 µM; in the assay on Klebsiella pneumoniae, 1.2 µM; in the assay on Serratia marcescens it was 0.4 µM. Besides, the Ratio in the assay with Pseudomonas aeruginosa [6] was determined as 256.

Turning to `Nc1nc2cccc(-c3ccc(C(F)(F)F)c(S(N)(=O)=O)c3-c3nn[nH]n3)c2s1`, the IC50 in assay [1] was 0.04 nM; in assay [2] it was 0.8 nM; in assay [3], 0.1 nM. Moreover, the MITC95 in the assay with Escherichia coli amounted to 1.6 µM; with Pseudomonas aeruginosa [4], 1.56 µM; with Pseudomonas aeruginosa [5], 50 µM; in the assay on Klebsiella pneumoniae, 6.3 µM; with Serratia marcescens it was 6.3 µM. Also, the Ratio with Pseudomonas aeruginosa [6] was determined as 32.

For the compound `NS(=O)(=O)c1cccc(-c2ccc(C3CCNCC3)cc2)c1-c1nn[nH]n1`, the results for the IC50 in assay [1], in assay [2] and in [3] were 5 nM, 34 nM and 19 nM, respectively. Moreover, the MITC95 in the assay on Escherichia coli was found to be 3 µM; with Pseudomonas aeruginosa [4], 1.56 µM; with Pseudomonas aeruginosa [5] it was 200 µM; with Klebsiella pneumoniae it was 38 µM; in the assay on Serratia marcescens it was 9 µM. Besides, the Ratio in the assay on Pseudomonas aeruginosa [6] came out at 128.

Take `NCCCc1ccc(-c2cccc3sc(N)nc23)c(-c2nn[nH]n2)c1S(N)(=O)=O`: the values for the IC50 in assay [1], in [2] and in assay [3] were 0.8 nM, 12 nM and 1.8 nM, respectively. Besides, the MITC95 in the assay with Escherichia coli turned out to be 0.8 µM; in the assay on Pseudomonas aeruginosa [4] it was 0.8 µM; in the assay on Pseudomonas aeruginosa [5] it was 12.5 µM; with Klebsiella pneumoniae it was 1.6 µM; in the assay on Serratia marcescens, 1.6 µM. Further, the Ratio with Pseudomonas aeruginosa [6] worked out at 16.

`NS(=O)(=O)c1c(C(F)(F)F)ccc(-c2ccc(NS(=O)(=O)C3CC3)cc2)c1-c1nn[nH]n1`: the IC50 in [1] was determined as 0.3 nM; in assay [2] it was 0.2 nM; in [3], 0.08 nM. The MITC95 amounted to 6.3 µM in the assay with Escherichia coli; 0.78 µM with Pseudomonas aeruginosa [4]; 50 µM in the assay on Pseudomonas aeruginosa [5]; 12.5 µM in the assay with Klebsiella pneumoniae; 3.1 µM in the assay on Serratia marcescens. The Ratio in the assay on Pseudomonas aeruginosa [6] is reported as 64.

Regarding `NS(=O)(=O)c1c(Cl)ccc(-c2ccc(C3CCNCC3)cc2)c1-c1nn[nH]n1`, the concentration for half-maximal inhibition (IC50) in [1] was determined as 6 nM; in assay [2], 9 nM; in assay [3] it was 3 nM. The MITC95 in the assay with Escherichia coli amounted to 0.8 µM; in the assay on Pseudomonas aeruginosa [4], 0.39 µM; in the assay on Pseudomonas aeruginosa [5], 50 µM; with Klebsiella pneumoniae, 1.6 µM; with Serratia marcescens, 0.4 µM. The Ratio in the assay on Pseudomonas aeruginosa [6] amounted to 128.

Take `Nc1nc2ccc(-c3ccc(C(F)(F)F)c(S(N)(=O)=O)c3-c3nn[nH]n3)cc2s1`: the IC50 in assay [1] came to 0.8 nM; in assay [2], 2.5 nM; in assay [3] it was 0.3 nM. Also, the MITC95 with Escherichia coli is 3.1 µM; with Pseudomonas aeruginosa [4], 1.56 µM; in the assay on Pseudomonas aeruginosa [5] it was 200 µM; in the assay on Klebsiella pneumoniae, 12.5 µM; in the assay with Serratia marcescens, 3.1 µM. In addition, the Ratio in the assay on Pseudomonas aeruginosa [6] stood at 128.

Regarding `NS(=O)(=O)c1c(C(F)(F)F)ccc(-c2ccc(C3CCNCC3)cc2)c1-c1nn[nH]n1`, the IC50 in assay [1] stood at 0.9 nM; in [2], 1.2 nM; in assay [3] it was 0.3 nM. Moreover, the MITC95 in the assay with Escherichia coli is 0.7 µM; in the assay with Pseudomonas aeruginosa [4], 0.78 µM; in the assay with Pseudomonas aeruginosa [5] it was 50 µM; with Klebsiella pneumoniae, 1.9 µM; with Serratia marcescens, 0.2 µM. Further, the Ratio in the assay on Pseudomonas aeruginosa [6] was 64.
